Measurements published in US20230382926A1, “COMPOUNDS AND USES THEREOF” (The University of The West Indies, priority 2022, published 2023).

Tests used:
Experiment in all cases: Rescue concentration, modified checkerboard MIC adjuvant assay
Assay type in all cases: cell-based
[1] = system: Acinetobacter baumannii clinical isolate 9978; conditions: A. baumannii clinical isolate 9978
Outline: (§1)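 Each well receives bacteria at 10^6 CFU/ml in cation-adjusted Mueller Hinton Broth, a breakpoint concentration of antibiotic, and one step of a twofold compound series. After aerobic incubation at 35° C. for 24 h, growth is scored by eye; rescue concentration reduces MIC to breakpoint.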

[2] = system: Enterobacter cloacae ATCC BAA-1143; conditions: E. cloacae ATCC BAA-1143
Outline: as §1

[3] = system: Escherichia coli ATCC 35150; conditions: E. coli ATCC 35150
Outline: as §1

[4] = system: Klebsiella pneumoniae ATCC BAA-2814; conditions: K. pneumoniae ATCC BAA-2814
Outline: as §1

[5] = system: Pseudomonas aeruginosa MDR 5805; conditions: P. aeruginosa MDR 5805
Outline: as §1

[6] = system: Staphylococcus aureus ATCC BAA-2312; conditions: S. aureus ATCC BAA-2312
Outline: as §1

[7] = system: Stenotrophomonas maltophilia MDR 7785; conditions: S. maltophilia MDR 7785
Outline: as §1

[8] = system: Streptococcus pneumoniae ATCC 49619; conditions: S. pneumoniae ATCC 49619
[9] = Amox at susceptible breakpoint 8 μg mL^−1
[10] = Cef at susceptible breakpoint 8 μg mL^−1
[11] = Col at susceptible breakpoint 2 μg mL^−1
[12] = Gen at susceptible breakpoint 4 μg mL^−1
[13] = Imi at susceptible breakpoint 2 μg mL^−1
[14] = Mero at susceptible breakpoint 2 μg mL^−1
[15] = Pol B at susceptible breakpoint 2 μg mL^−1
[16] = Amp at susceptible breakpoint 8 μg mL^−1
[17] = Azi at susceptible breakpoint 16 μg mL^−1
[18] = Ceph at susceptible breakpoint 8 μg mL^−1
[19] = Chl at susceptible breakpoint 8 μg mL^−1
[20] = Col at susceptible breakpoint 8 μg mL^−1
[21] = Dox at susceptible breakpoint 4 μg mL^−1
[22] = Imi at susceptible breakpoint 1 μg mL^−1
[23] = Tet at susceptible breakpoint 4 μg mL^−1

Brc1ccc(C(c2c[nH]c3ncccc23)c2c[nH]c3ncccc23)cc1 [SP-7azaBIM 126, 3,3′-((4-bromophenyl)methylene)bis(1H-pyrrolo[2,3-b]pyridine)]
Rescue concentration, Amox (8) [1, 9]: >128 µg/mL
Rescue concentration, Cef (8) [1, 10]: >128 µg/mL
Rescue concentration, Col (2) [1, 11]: >128 µg/mL
Rescue concentration, Gen (4) [1, 12]: >128 µg/mL
Rescue concentration, Imi (2) [1, 13]: >128 µg/mL
Rescue concentration, Mero (2) [1, 14]: >128 µg/mL
Rescue concentration, Pol B (2) [1, 15]: >128 µg/mL
Rescue concentration, Amp (8) [2, 16]: 128 µg/mL
Rescue concentration, Azi (16) [2, 17]: >128 µg/mL
Rescue concentration, Ceph (8) [2, 18]: >128 µg/mL
Rescue concentration, Chl (8) [2, 19]: >128 µg/mL
Rescue concentration, Col (8) [2, 20]: >128 µg/mL
Rescue concentration, Dox (4) [2, 21]: >128 µg/mL
Rescue concentration, Gen (4) [2, 12]: >128 µg/mL
Rescue concentration, Imi (1) [2, 22]: >128 µg/mL
Rescue concentration, Tet (4) [2, 23]: >128 µg/mL
Rescue concentration, Amp (8) [3, 16]: >128 µg/mL
Rescue concentration, Cip (0.25) ([3]; Cip at susceptible breakpoint 0.25 μg mL^−1): >128 µg/mL
Rescue concentration, Col (8) [3, 20]: >128 µg/mL
Rescue concentration, Dox (4) [3, 21]: >128 µg/mL
Rescue concentration, Gen (4) [3, 12]: >128 µg/mL
Rescue concentration, Imi (1) [3, 22]: >128 µg/mL
Rescue concentration, Amox (8) [4, 9]: >128 µg/mL
Rescue concentration, Amp (8) [4, 16]: >128 µg/mL
Rescue concentration, Aze (4) ([4]; Aze at susceptible breakpoint 4 μg mL^−1): >128 µg/mL
Rescue concentration, Azi (16) [4, 17]: >128 µg/mL
Rescue concentration, Cef (16) ([4]; Cef at susceptible breakpoint 16 μg mL^−1): >128 µg/mL
Rescue concentration, Ceph (8) [4, 18]: >128 µg/mL
Rescue concentration, Chl (8) [4, 19]: >128 µg/mL
Rescue concentration, Col (8) [4, 20]: >128 µg/mL
Rescue concentration, Dox (4) [4, 21]: >128 µg/mL
Rescue concentration, Gen (4) [4, 12]: >128 µg/mL
Rescue concentration, Imi (1) [4, 22]: >128 µg/mL
Rescue concentration, Tet (4) [4, 23]: >128 µg/mL
Rescue concentration, Amox (8) [5, 9]: >128 µg/mL
Rescue concentration, Col (2) [5, 11]: >128 µg/mL
Rescue concentration, Gen (4) [5, 12]: >128 µg/mL
Rescue concentration, Imi (2) [5, 13]: >128 µg/mL
Rescue concentration, Mero (2) [5, 14]: >128 µg/mL
Rescue concentration, Pol B (2) [5, 15]: >128 µg/mL
Rescue concentration, Azi (2) ([6]; Azi at susceptible breakpoint 2 μg mL^−1): >128 µg/mL
Rescue concentration, Gen (4) [6, 12]: >128 µg/mL
Rescue concentration, Pen (0.12) ([6]; Pen at susceptible breakpoint 0.12 μg mL^−1): >128 µg/mL
Rescue concentration, Tri (8) ([6]; Tri at susceptible breakpoint 8 μg mL^−1): >128 µg/mL
Rescue concentration, Van (2) ([6]; Van at susceptible breakpoint 2 μg mL^−1): >128 µg/mL
Rescue concentration, Cef (8) [7, 10]: >128 µg/mL
Rescue concentration, Ceph (8) [7, 18]: >128 µg/mL
Rescue concentration, Chl (8) [7, 19]: >128 µg/mL
Rescue concentration, Cip (2) ([7]; Cip at susceptible breakpoint 2 μg mL^−1): >128 µg/mL
Rescue concentration, Gen (4) [7, 12]: >128 µg/mL
Rescue concentration, Imi (2) [7, 13]: 16 µg/mL
Rescue concentration, Mero (2) [7, 14]: 32 µg/mL
Rescue concentration, Tri (2) ([7]; Tri at susceptible breakpoint 2 μg mL^−1): >128 µg/mL
Rescue concentration, Amox (2) ([8]; Amox at susceptible breakpoint 2 μg mL^−1): >128 µg/mL
Rescue concentration, Ery (0.25) ([8]; Ery at susceptible breakpoint 0.25 μg mL^−1): >128 µg/mL
Rescue concentration, Imi (0.12) ([8]; Imi at susceptible breakpoint 0.12 μg mL^−1): >128 µg/mL
